Kd and stoichiometry N data for three molecules are collected here from paper PMC11297040, “Engineering of a mammalian VMAT2 for cryo-EM analysis results in non-canonical protein folding” (Nature Communications, 2024).

In test [1] the target is T1, XlVMAT2WT (Xenopus laevis, UniProt A0A1L8FIB7).
T1 construct: gene LOC108696020; full-length wild type, 514 residues, monomer; N-terminal His10-BRIL-TEV and C-terminal TEV-BRIL-His10 tags, released by TEV cleavage (called His-tagged in MST); Pichia pastoris GS115; DDM
T1 sequence (A0A1L8FIB7 1-514): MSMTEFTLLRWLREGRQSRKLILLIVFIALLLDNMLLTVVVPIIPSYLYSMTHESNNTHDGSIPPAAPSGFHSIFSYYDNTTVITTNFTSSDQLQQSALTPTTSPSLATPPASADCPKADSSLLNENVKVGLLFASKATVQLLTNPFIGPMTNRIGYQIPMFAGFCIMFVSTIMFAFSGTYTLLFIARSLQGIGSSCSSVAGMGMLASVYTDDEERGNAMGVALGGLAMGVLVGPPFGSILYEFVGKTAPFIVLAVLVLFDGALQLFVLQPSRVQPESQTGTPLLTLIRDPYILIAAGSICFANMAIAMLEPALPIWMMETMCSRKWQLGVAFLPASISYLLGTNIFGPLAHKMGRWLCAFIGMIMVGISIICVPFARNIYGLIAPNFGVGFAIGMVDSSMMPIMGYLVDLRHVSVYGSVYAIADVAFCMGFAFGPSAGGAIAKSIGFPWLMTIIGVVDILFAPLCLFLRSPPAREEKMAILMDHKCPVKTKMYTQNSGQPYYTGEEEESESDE
Nature of the test: microscale thermophoresis (RED-Tris-NTA labelled protein). The format is binding. Background: In MST a laser heats a spot of the sample, and binding alters the fluorescence response.

The target in test [2] is T2, OaVMAT2WT (Ovis aries, UniProt A0A6P7DBQ8).
T2 construct: gene JEQ12_011695; full-length wild type; N-terminal His10-BRIL-TEV and C-terminal TEV-BRIL-His10 tags, released by TEV cleavage (called His-tagged in MST); Pichia pastoris GS115; DDM; monomer on crosslinking
T2 sequence (A0A6P7DBQ8 1-517): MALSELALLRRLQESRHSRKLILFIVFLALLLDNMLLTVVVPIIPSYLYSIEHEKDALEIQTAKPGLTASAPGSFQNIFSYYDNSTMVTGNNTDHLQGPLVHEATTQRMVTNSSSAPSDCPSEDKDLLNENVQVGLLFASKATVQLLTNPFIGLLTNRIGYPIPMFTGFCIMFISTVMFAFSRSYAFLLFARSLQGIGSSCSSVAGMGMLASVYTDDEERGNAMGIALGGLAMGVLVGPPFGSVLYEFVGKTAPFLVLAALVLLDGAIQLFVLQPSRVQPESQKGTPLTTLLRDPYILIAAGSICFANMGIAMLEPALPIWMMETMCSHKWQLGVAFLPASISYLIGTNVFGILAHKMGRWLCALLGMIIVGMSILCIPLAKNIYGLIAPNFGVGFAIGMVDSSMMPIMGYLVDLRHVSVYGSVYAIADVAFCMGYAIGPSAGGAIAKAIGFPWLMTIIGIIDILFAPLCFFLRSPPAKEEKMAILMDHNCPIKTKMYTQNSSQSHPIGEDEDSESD
The test is described as above. It is filed as binding.

The target in test [3] is T3, HsVMAT2 (Homo sapiens, UniProt Q05940).
T3 construct: gene SLC18A2; full-length; N-terminal His10-BRIL-TEV and C-terminal TEV-BRIL-His10 tags, released by TEV cleavage (called His-tagged in MST); Pichia pastoris GS115; DDM
T3 sequence (Q05940 whole entry): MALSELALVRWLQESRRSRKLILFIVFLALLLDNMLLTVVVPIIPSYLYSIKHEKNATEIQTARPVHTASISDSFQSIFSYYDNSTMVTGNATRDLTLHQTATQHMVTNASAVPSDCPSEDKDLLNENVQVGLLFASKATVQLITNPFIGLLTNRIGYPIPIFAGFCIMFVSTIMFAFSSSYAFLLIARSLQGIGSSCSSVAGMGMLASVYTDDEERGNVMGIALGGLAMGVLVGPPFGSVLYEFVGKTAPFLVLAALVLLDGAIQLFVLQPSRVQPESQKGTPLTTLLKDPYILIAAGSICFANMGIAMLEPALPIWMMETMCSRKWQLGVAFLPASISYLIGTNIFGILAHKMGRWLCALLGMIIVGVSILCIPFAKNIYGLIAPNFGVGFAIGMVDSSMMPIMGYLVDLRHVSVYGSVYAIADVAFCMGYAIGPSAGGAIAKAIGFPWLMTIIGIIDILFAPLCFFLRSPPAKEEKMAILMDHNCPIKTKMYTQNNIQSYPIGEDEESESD
The test is described as above. It is filed as binding. The text has this:
microscale thermophoresis (RED-Tris-NTA labelled protein) on HsVMAT2 | MST fitting curves of SER binding to HsVMAT2 WT and variants as indicated

The target of test [4] is T4, HsVMAT2 (Homo sapiens, UniProt Q05940, D399A).
T4 construct: gene SLC18A2; full-length; N-terminal His10-BRIL-TEV and C-terminal TEV-BRIL-His10 tags, released by TEV cleavage (called His-tagged in MST); Pichia pastoris GS115; DDM
T4 sequence (Q05940 whole entry D399A): as the sequence (Q05940 whole entry) above, with D399A counted along it
Described as above. It is filed as binding.

In test [5] the target is T5, HsVMAT2 (Homo sapiens, UniProt Q05940, Y433A).
T5 construct: gene SLC18A2; full-length; N-terminal His10-BRIL-TEV and C-terminal TEV-BRIL-His10 tags, released by TEV cleavage (called His-tagged in MST); Pichia pastoris GS115; DDM
T5 sequence (Q05940 whole entry Y433A): as the sequence (Q05940 whole entry) above, with Y433A counted along it
Described as above. It is filed as binding. The text has this: (§1) microscale thermophoresis (RED-Tris-NTA labelled protein) on HsVMAT2 | L228A, V232A, E312A, Y341A, D399A and Y433A, reduced their binding affinities for serotonin

Test [6] deals with T6, HsVMAT2 (Homo sapiens, UniProt Q05940, V232A).
T6 construct: gene SLC18A2; full-length; N-terminal His10-BRIL-TEV and C-terminal TEV-BRIL-His10 tags, released by TEV cleavage (called His-tagged in MST); Pichia pastoris GS115; DDM
T6 sequence (Q05940 whole entry V232A): as the sequence (Q05940 whole entry) above, with V232A counted along it
The description is as above. It is filed as binding.
From the text: as §1

The target in test [7] is T7, HsVMAT2 (Homo sapiens, UniProt Q05940, Y341A).
T7 construct: gene SLC18A2; full-length; N-terminal His10-BRIL-TEV and C-terminal TEV-BRIL-His10 tags, released by TEV cleavage (called His-tagged in MST); Pichia pastoris GS115; DDM
T7 sequence (Q05940 whole entry Y341A): as the sequence (Q05940 whole entry) above, with Y341A counted along it
Described as above. The format is binding.
From the text: as §1

Test [8] has as its target T8, HsVMAT2 (Homo sapiens, UniProt Q05940, L228A).
T8 construct: gene SLC18A2; full-length; N-terminal His10-BRIL-TEV and C-terminal TEV-BRIL-His10 tags, released by TEV cleavage (called His-tagged in MST); Pichia pastoris GS115; DDM
The description is as above. The format is binding.
From the text: as §1

In test [9] the target is OaVMAT2_(TM8/9-BRIL): sheep (Ovis aries) VMAT2 with the TM8/9 loop replaced by BRIL (Ovis aries | not stated). Nature of the test: cryo-EM structure; single-particle analysis of OaVMAT2_(TM8/9-BRIL) in 20 mM Tris-HCl pH 7.5, 150 mM NaCl, 5 mM beta-mercaptoethanol, 0.4 mM DDM; C2 symmetry imposed; 3.2 A.
Test [10] has the same target. Nature of the test: cross-linking; ~10 ug purified protein in 20 mM HEPES-Na pH 7.5, 150 mM NaCl, 5 mM beta-mercaptoethanol, 0.4 mM DDM; glutaraldehyde 4, 2 and 1 mM, 10 min, room temperature; SDS-PAGE.

T8 sequence (Q05940 whole entry L228A): as the sequence (Q05940 whole entry) above, with L228A counted along it

Consider `COC(=O)[C@H]1[C@H]2C[C@@H]3c4[nH]c5cc(OC)ccc5c4CCN3C[C@H]2C[C@@H](OC(=O)c2cc(OC)c(OC)c(OC)c2)[C@@H]1OC` [reserpine], for which the Kd (commonly the free concentration of one partner at which half of the binding sites on the other are occupied at equilibrium, for simple one-to-one binding) in [1] was determined as 17 ± 8.8 nM; in test [2], 16 ± 5.7 nM.

On to `NCCc1c[nH]c2ccc(O)cc12` [serotonin], for which the Kd in test [3] worked out at 450 ± 50 nM; in test [1], 430 ± 220 nM; in [4], 22100 ± 3600 nM; in test [2] it was 210 ± 60 nM; in test [5] it was 3910 ± 1300 nM; in [6] it was 3850 ± 1610 nM. Moreover, the dissociation constant Kd in test [7] came out at 810 ± 220 nM; in test [8] it was 3150 ± 550 nM.

As to “OaVMAT2_(TM8/9-BRIL): sheep (Ovis aries) VMAT2 with the TM8/9 loop replaced by BRIL”, the stoichiometry N in [9] and in test [10] was 2 throughout.
